Measurements from patent US8648081B2 (Eli Lilly and Company, priority 2011, dated 2014).

These compounds were tested on Lone star tick larvae (Amblyomma americanum) (assay: In Vitro Larval Immersion Microassay (LIM)). Conditions: read-out: % Efficacy (percent larval mortality).
Experimental: In Vitro Larval Immersion Microassay (LIM)
The larval immersion microassay may be conducted as described in White, et al., J. Med. Entomol. […] Briefly, experimental test articles are formulated in dimethylsulfoxide (DMSO) to prepare a stock solution at a concentration of 10 mM. […] Approximately 30-50 Lone star tick larvae (Amblyomma americanum) are submerged into each well containing experimental test articles. After a 30 minute immersion period, larvae are removed with a wide-bore pipette tip in 0.05 ml of fluid, dispensed into a commercial paper tissue biopsy bag which is sealed at the top with a plastic dialysis clip, inverted and allowed to air dry for 60 minutes. Bags containing larvae are then incubated at approximately 27 degrees Celsius and >90% relative humidity. After 24 hours, bags are opened, live and dead larvae are counted and percent larval mortality is calculated as follows: % Efficacy=(# dead larvae)/(# total larvae)×100.

SMILES | mortality at 300 µM [%]
N#CCNC(=O)CNC(=O)c1sc(C2=NOC(c3cc(Cl)c(F)c(Cl)c3)(C(F)(F)F)C2)c2c1CCC2 (stereo not drawn) [Example 59, N-(2-(cyanomethyl-amino)-2-oxoethyl)-3-(5-(3,5-dichloro-4-fluorophenyl)-5-(trifluoromethyl)-4,5-dihydroisoxazol-3-yl)-5,6-dihydro-4H-cyclopenta[c] thiophene-1-carboxamide] | ≥ 80
O=C(CNC(=O)c1sc(C2=NOC(c3cc(Cl)cc(Cl)c3)(C(F)(F)F)C2)c2c1CCCC2)NCC(F)(F)F (stereo not drawn) [Example 62, 3-(5-(3,5-dichloro-phenyl)-5-(trifluoro-methyl)-4,5-dihydro-isoxazol-3-yl)-N-(2-oxo-2-(2,2,2-trifluoroethylamino)ethyl)-4,5,6,7-tetrahydrobenzo[c] thiophene-1-carboxamide] | ≥ 80
N#CCNC(=O)CNC(=O)c1sc(C2=NOC(c3cc(Cl)cc(Cl)c3)(C(F)(F)F)C2)c2c1CCCC2 (stereo not drawn) [Example 94, N-(2-(cyanomethylamino)-2-oxoethyl)-3-(5-(3,5-dichlorophenyl)-5-(trifluoromethyl)-4,5-dihydroisoxazol-3-yl)-4,5,6,7-tetrahydrobenzo[c]thiophene-1-carboxamide] | ≥ 80
O=C(NC1CCN(C2CC2)C1=O)c1sc(C2=NOC(c3cc(Cl)cc(Cl)c3)(C(F)(F)F)C2)c2c1CCCC2 (stereo not drawn) [Example 72] | ≥ 80
O=C1CCC(NC(=O)c2sc(C3=NOC(c4cc(Cl)c(F)c(Cl)c4)(C(F)(F)F)C3)c3c2CCCC3)CC1 (stereo not drawn) [Example 81, 3-(5-(3,5-dichloro-4-fluorophenyl)-5-(trifluoromethyl)-4,5-dihydroisoxazol-3-yl)-N-(4-oxocyclohexyl)-4,5,6,7-tetrahydrobenzo [c]thiophene-1-carboxamide] | ≥ 80
O=C(CNC(=O)c1sc(C2=NO[C@@](c3cc(Cl)c(F)c(Cl)c3)(C(F)(F)F)C2)c2c1CCC2)NCCF [Example 247, (S)-3-[5-(3,5-Dichloro-4-fluoro-phenyl)-5-trifluoromethyl-4,5-dihydro-isoxazol-3-yl]-5,6-dihydro-4H-cyclopenta[c]thiophene-1-carboxylic acid [(2-fluoro-ethylcarbamoyl)-methyl]-amide] | ≥ 80
O=C(CNC(=O)c1sc(C2=NO[C@@](c3cc(Cl)c(F)c(Cl)c3)(C(F)(F)F)C2)c2c1CCC2)NCC(F)(F)F [Example 243, (S)-3-(5-(3,5-dichloro-4-fluorophenyl)-5-(trifluoromethyl)-4,5-dihydroisoxazol-3-yl)-N-(2-oxo-2-(2,2,2-trifluoroethylamino)ethyl)-5,6-dihydro-4H-cyclopenta[c]thiophene-1-carboxamide] | ≥ 80
O=C1CCCC(NC(=O)c2sc(C3=NOC(c4cc(Cl)cc(Cl)c4)(C(F)(F)F)C3)c3c2CCCC3)C1 (stereo not drawn) [Example 38, 3-(5-(3,5-dichloro-phenyl)-5-(trifluoro-methyl)-4,5-dihydro-isoxazol-3-yl)-N-(3-oxocyclohexyl)-4,5,6,7-tetrahydrobenzo [c]thiophene-1-carboxamide] | ≥ 80
O=C(NC1CCN(C2CC2)C1=O)c1sc(C2=NOC(c3cc(Cl)c(F)c(Cl)c3)(C(F)(F)F)C2)c2c1CCCC2 (stereo not drawn) [Example 84, N-(1-cyclopropyl-2-oxopyrrolidin-3-yl)-3-(5-(3,5-dichloro-4-fluorophenyl)-5-(trifluoromethyl)-4,5-dihydroisoxazol-3-yl)-4,5,6,7-tetra-hydrobenzo[c] thiophene-1-carboxamide] | ≥ 80
O=C(CNC(=O)c1cnc2sc(C3=NOC(c4cc(Cl)cc(Cl)c4)(C(F)(F)F)C3)cc2c1)NCC(F)(F)F (stereo not drawn) [Example 240, 2-(5-(3,5-dichlorophenyl)-5-(trifluoromethyl)-4,5-dihydroisoxazol-3-yl)-N-(2-oxo-2-(2,2,2-trifluoroethylamino)ethyl)thieno[2,3-b]pyridine-5-carboxamide] | ≥ 80
C#CCNC(=O)CNC(=O)c1sc(C2=NOC(c3cc(Cl)c(Cl)c(Cl)c3)(C(F)(F)F)C2)c2c1CCC2 (stereo not drawn) [Example 55, N-(2-oxo-2-(prop-2-ynylamino)ethyl)-3-(5-(3,4,5-trichlorophenyl)-5-(trifluoromethyl)-4,5-dihydroisoxazol-3-yl)-5,6-dihydro-4H-cyclo-penta[c]thiophene-l-carboxamide] | ≥ 80
FC(F)(F)C1(c2cc(Cl)cc(Cl)c2)CC(c2cc3cccnc3s2)=NO1 (stereo not drawn) [Example 232, 2-[5-(3,5-Dichloro-phenyl)-5-tri-fluoromethyl-4,5-dihydro-isoxazol-3-yl]-thieno[2,3-b] pyridine] | ≥ 80
O=C(NC1CCCC(O)C1)c1sc(C2=NOC(c3cc(Cl)cc(Cl)c3)(C(F)(F)F)C2)c2c1CCCC2 (stereo not drawn) [Example 67, 3-(5-(3,5-dichloro-phenyl)-5-(trifluoro-methyl)-4,5-dihydro-isoxazol-3-yl)-N-(3-hydroxycyclohexyl)-4,5,6,7-tetrahydrobenzo [c]thiophene-1-carboxamide] | ≥ 80
O=C(CNC(=O)c1sc(C2=NOC(c3cc(Cl)cc(Cl)c3)(C(F)(F)F)C2)c2c1CCC2)NCC(F)(F)F (stereo not drawn) [Example 36, 3-(5-(3,5-dichloro-phenyl)-5-(trifluoro-methyl)-4,5-dihydro-isoxazol-3-yl)-N-(2-oxo-2-(2,2,2-trifluoroethylamino)ethyl)-5,6-dihydro-4H-cyclopenta[c] thiophene-1-carboxamide] | ≥ 80
C#CCNC(=O)CNC(=O)c1sc(C2=NOC(c3cc(Cl)c(F)c(Cl)c3)(C(F)(F)F)C2)c2c1CCCC2 (stereo not drawn) [Example 51, 3-(5-(3,5-dichloro-4-fluorophenyl)-5-(trifluoromethyl)-4,5-dihydroisoxazol-3-yl)-N-(2-oxo-2-(prop-2-ynylamino)ethyl)-4,5,6,7-tetrahydro-benzo[c]thiophene-1-carboxamide] | ≥ 80
O=C(N[C@@H]1CCNC1=O)c1sc(C2=NOC(c3cc(Cl)c(Cl)c(Cl)c3)(C(F)(F)F)C2)c2c1CCCC2 (stereo partly drawn) [Example 45, N-((R)-2-oxopyrrolidin-3-yl)-3-(5-(3,4,5-trichlorophenyl)-5-(trifluoromethyl)-4,5-dihydroisoxazol-3-yl)-4,5,6,7-tetrahydrobenzo [c]thiophene-1-carboxamide] | ≥ 80
O=C(NC1CCS(=O)(=O)CC1)c1sc(C2=NOC(c3cc(Cl)cc(Cl)c3)(C(F)(F)F)C2)c2c1CCCC2 (stereo not drawn) [Example 39, 3-[5-(3,5-Dichloro-phenyl)-5-trifluoro-methyl-4,5-dihydro-isoxazol-3-yl]-4,5,6,7-tetrahydro-benzo [c]thiophene-1-carboxylic acid (1,1-dioxo-hexahydro-116-thiopyran-4-yl)-amide] | ≥ 80
O=C(CNC(=O)c1sc(C2=NOC(c3cc(Cl)c(F)c(Cl)c3)(C(F)(F)F)C2)c2c1CCCC2)NCC(F)(F)F (stereo not drawn) [Example 48, 3-(5-(3,5-dichloro-4-fluorophenyl)-5-(trifluoromethyl)-4,5-dihydroisoxazol-3-yl)-N-(2-oxo-2-(2,2,2-trifluoroethyl-amino)ethyl)-4,5,6,7-tetrahydrobenzo [c]thiophene-1-carboxamide] | ≥ 80
O=C(NC1CS(=O)(=O)C1)c1sc(C2=NOC(c3cc(Cl)cc(Cl)c3)(C(F)(F)F)C2)c2c1CCCC2 (stereo not drawn) [Example 37, 3-[5-(3,5-Dichloro-phenyl)-5-trifluoro-methyl-4,5-dihydro-isoxazol-3-yl]-4,5,6,7-tetrahydro-benzo[c] thiophene-1-carboxylic acid (1,1-dioxo-thietan-3-yl)-amide] | ≥ 80
O=C(CNC(=O)c1sc(C2=NO[C@@](c3cc(Cl)c(F)c(Cl)c3)(C(F)(F)F)C2)c2c1CCC2)NCC(F)F [Example 245, (S)-3-[5-(3,5-dichloro-4-fluoro-phenyl)-5-trifluoromethyl-4,5-dihydro-isoxazol-3-yl]-5,6-dihydro-4H-cyclopenta[c]thiophene-1-carboxylic acid [(2,2-difluoro-ethylcarbamoyl)-methyl]-amide] | ≥ 80
O=C(NC1CCN(C2CC2)C1=O)c1sc(C2=NOC(c3cc(Cl)c(Cl)c(Cl)c3)(C(F)(F)F)C2)c2c1CCCC2 (stereo not drawn) [Example 78, N-(1-cyclopropyl-2-oxopyrrolidin-3-yl)-3-(5-(3,4,5-trichloro-phenyl)-5-(trifluoro-methyl)-4,5-dihydro-isoxazol-3-yl)-4,5,6,7-tetrahydrobenzo[c] thiophene-1-carboxamide] | ≥ 80
O=C(N[C@@H]1CCNC1=O)c1sc(C2=NOC(c3cc(Cl)c(F)c(Cl)c3)(C(F)(F)F)C2)c2c1CCC2 (stereo partly drawn) [Example 58, 3-(5-(3,5-dichloro-4-fluorophenyl)-5-(trifluoromethyl)-4,5-dihydroisoxazol-3-yl)-N-((R)-2-oxopyrrolidin-3-yl)-5,6-dihydro-4H-cyclopenta[c] thiophene-1-carboxamide] | ≥ 80

Same assay, conditions: tested at 300 micromolar, 30 minute immersion, mortality counted after 24 hours, read-out: % Efficacy (percent larval mortality)

SMILES | mortality at 300 µM [%]
C#CCNC(=O)CNC(=O)c1sc(C2=NOC(c3sc(Cl)c(Cl)c3Cl)(C(F)(F)F)C2)c2c1CCCC2 (stereo not drawn) [Example 74, N-(2-oxo-2-(prop-2-ynylamino)ethyl)-3-(5-(3,4,5-trichloro-thiophen-2-yl)-5-(trifluoromethyl)-4,5-dihydroisoxazol-3-yl)-4,5,6,7-tetrahydro-benzo[c]thiophene-1-carboxamide] | ≥ 80
N#CCNC(=O)CNC(=O)c1sc(C2=NOC(c3sc(Cl)c(Cl)c3Cl)(C(F)(F)F)C2)c2c1CCCC2 (stereo not drawn) [Example 96, N-(2-(cyanomethylamino)-2-oxoethyl)-3-(5-(3,4,5-trichlorothiophen-2-yl)-5-(trifluoromethyl)-4,5-dihydroisoxazol-3-yl)-4,5,6,7-tetrahydro-benzo[c]thiophene-1-carboxamide] | ≥ 80
